Values quoted from earlier work as cited in US20190367426A1, “LIQUID UREASE INHIBITOR FORMULATIONS” (YARA INTERNATIONAL ASA, priority 2017, published 2019).

Tested on: rat

Row | SMILES | toxicity oral rat LD50 [mg/kg]
1 | CCCCOCCOCCO [DEGMBE, Diethylene glycol monobutyl ether] | 5660
2 | COCCOCCO [DEGMME, Diethylene glycol monomethyl ether] | 6450
